Source: ChEMBL document CHEMBL1949671, “Design and synthesis of estrogen receptor degradation inducer based on a protein knockdown strategy” (Bioorg Med Chem Lett, 2012)
Calls of active or inactive are those of the source. The calls are words filed in the database; no cut-off is given here.

What was measured:
[1] = molecular target: T1, Baculoviral IAP repeat-containing protein 2/Estrogen receptor (Homo sapiens) (UniProt P03372+Q13490); experiment: Binding affinity to cIAP1/ERalpha in human MCF7 cells assessed as proteasomal degradation of ERalpha after 6 hrs by Western blot analysis in presence of proteasome inhibitor MG132; format: cell-based
[2] = molecular target: T1, Baculoviral IAP repeat-containing protein 2/Estrogen receptor (Homo sapiens); experiment: Binding affinity to cIAP1/ERalpha in human MCF7 cells assessed as proteasomal degradation of ERalpha at 10 to 30 uM after 6 hrs by Western blot analysis; format: cell-based

Row | Structure (SMILES) | Activity [1] | Activity [2]
1 | CCC(=C(c1ccc(O)cc1)c1ccc(OCCN(C)C(=O)CCCCNC(=O)[C@H](CC(C)C)NC(=O)[C@@H](O)[C@H](N)Cc2ccccc2)cc1)c1ccccc1 | inactive | Active
2 | CCC(=C(c1ccc(O)cc1)c1ccc(OCCN(C)C(=O)CCCCCCNC(=O)[C@H](CC(C)C)NC(=O)[C@@H](O)[C@H](N)Cc2ccccc2)cc1)c1ccccc1 | inactive | Active
3 | CCC(=C(c1ccc(O)cc1)c1ccc(OCCN(C)C(=O)CCNC(=O)[C@H](CC(C)C)NC(=O)[C@@H](O)[C@H](N)Cc2ccccc2)cc1)c1ccccc1 | inactive | Active
